pEC50: −log10 of the molar value. Like-named read-outs stand apart in the source and are kept apart here.
Key:
[1] = test system: HIV-1 based vector containing wild-type (wt) HIV-1 RT; details: for pEC50: read-out: EC50(HOS), HOS cells, 48 h, wt HIV-1 RT vector
[2] = test system: HIV-1 based vector containing wild-type (wt) HIV-1 RT; format: cell-based; details: for pEC50: read-out: EC50(HOS-313), HOS-313 cells (HSV-1 TK), 48 h, wt HIV-1 RT vector
HOS-313 cells = format: cell-based, human; details: read-out: CC50(HOS-313), absence of virus, ATP level
HIV = details: qualitative; cited from earlier work
[3] = test system: cellular thymidine kinase (TK); details: cited from earlier work

Question: For `Nc1ncnc2c1ncn2[C@H]1C=C[C@]2(CO)C[C@H]12` [Compound 4c, ((1′R, 4′S, 5′S)-4-(6-Amino-9H-purin-9-yl)bicyclo[3.1.0]hex-2-en-1-yl)methanol], which “Selectivity index (cytotoxicity versus infectivity), HOS cells” value [1] is on record?
Answer: 25 fold

Question: What about the pEC50 [1] of the same compound?
Answer: 4.78

Question: What about the Anti-HIV activity (HIV-1) of the same compound?
Answer: active

Question: What about the pEC50 [2] of the same compound?
Answer: 4.95

Question: And the CC50 (HOS-313 cells)?
Answer: 246 µM

Question: And the CC50 (HOS cells; read-out: CC50(HOS), HOS cells, absence of virus, ATP level)?
Answer: 423 µM

Question: For `Cc1cn([C@H]2C[C@H](O)[C@]3(CO)C[C@H]23)c(=O)[nH]c1=O` [Compound 3a, North-methanocarbathymidine], which Anti-HIV activity (HIV) is on record?
Answer: inactive

Question: For `Cc1cn([C@H]2C[C@H](N=[N+]=[N-])[C@@H](CO)O2)c(=O)[nH]c1=O` [AZT], which “Affinity for cellular thymidine kinase (TK)” value ([3]; qualitative) is on record?
Answer: equivalent to that of thymidine itself

Question: For `Nc1nc2c(ncn2[C@@]23C=C[C@@H](CO)[C@@H]2C3)c(=O)[nH]1` [Compound 6b, 2-Amino-9-((1′S, 4′R, 5′S)-4-(hydroxymethyl)bicyclo[3.1.0]hex-2-en-1-yl)-1H-purin-6(9H)-one], which Anti-HIV activity (HIV-1) is on record?
Answer: inactive

Question: Which results are given for `Nc1ccn([C@H]2C=C[C@]3(CO)C[C@H]23)c(=O)n1` [Compound 4d, 4-Amino-1-((1′S, 2′S, 5′R)-5-(hydroxymethyl)bicyclo[3.1.0]hex-3-en-2-yl)pyrimidin-2(1H)-one]?
Answer: Anti-HIV activity (HIV-1): inactive; Cytotoxicity (qualitative) (HOS cells): relatively non-toxic

Question: Which “Selectivity index (cytotoxicity versus infectivity), HOS cells” value [1] does the source give for `Nc1ccn([C@@]23C=C[C@@H](CO)[C@@H]2C3)c(=O)n1` [Compound 6d, 4-Amino-1-((1′S, 4′R, 5′S)-4-(hydroxymethyl)bicyclo[3.1.0]hex-2-en-1-yl)pyrimidin-2(1H)-one] here?
Answer: 15.8

Question: And the pEC50 [1]?
Answer: 4.57

Question: What about the Anti-HIV activity (HIV-1) of the same compound?
Answer: +/− active

Question: What about the “Selectivity index, HOS-313 cells” value [2] of the same compound?
Answer: 130

Question: What about the pEC50 [2] of the same compound?
Answer: 5.52

Question: Which “Phosphorylation by cellular thymidine kinase (TK), less efficient than for AZT” value [3] does the source give for `Cc1cn([C@H]2C=C[C@@H](CO)O2)c(=O)[nH]c1=O` [Compound D4T, stavudine] here?
Answer: 500 fold

Question: Which Anti-HIV activity (HIV-1) does the source give for `Cc1cn([C@@]23C=C[C@@H](CO)[C@@H]2C3)c(=O)[nH]c1=O` [Compound 6a, 1-((1′S, 4′R, 5′S)-4-(Hydroxymethyl)bicyclo[3.1.0]hex-2-en-1-yl)-5-methylpyrimidine-2,4(1H,3H)-dione] here?
Answer: inactive

Question: For `Nc1ncnc2c1ncn2[C@@]12C=C[C@@H](CO)[C@@H]1C2` [Compound 6c, ((1′S, 2′R, 5′S)-5-(6-Amino-9H-purin-9-yl)bicyclo[3.1.0]hex-3-en-2-yl)methanol], which Anti-HIV activity (HIV-1) is on record?
Answer: inactive
